Consider 8 compounds from paper PMC11596549 (Metabolites, 2024).

Molecules are shown by their SMILES. Read-outs that look alike come from different tables or passages of the source.

For orientation: AUC(0-t) means exposure summed from dosing to a finite time, without extrapolation to infinity. Usually AUC(0-inf) stands for the area under the concentration-time curve extrapolated to infinity. In general, CL/F refers to the apparent clearance, not corrected for the fraction that reaches the circulation. As a reminder, the Cmax is the peak of the concentration-time curve. As a reminder, the MRT is the average time that molecules of a dose stay in the body. What is called Tmax is the time at which the peak concentration occurs. Usually half-life stands for the time needed for the level to fall by half in the phase considered.

The conditions of series [1]: cited from earlier work.
The nature of series [2]: Pharmacokinetic drug interaction study: aripiprazole single dose alone or after 6-day bupropion pretreatment, LC-MS/MS quantification, non-compartmental analysis. Particulars: for Vz_F / AUC(0-inf) / CL/F / Cmax / MRT / Tmax / k el: aripiprazole in rat plasma; for Vz_F / AUC(0-t) / AUC(0-inf) / CL/F / Cmax / MRT / Tmax / k el / half-life: mean ± S.D.; for AUC(0-t) / AUC(0-inf) / CL/F / Cmax / MRT / Tmax / k el / half-life: male, Wistar albino, rat, plasma, po, 8 mg/kg; for AUC(0-t): AUC0–30, aripiprazole in rat plasma; for AUC(0-inf): AUC0–∞; for CL/F: Cl_F; for k el: kel; for half-life: t1/2, aripiprazole in rat plasma.
Experimental: The suspension was vortex-mixed before each administration. We considered 15 mg ARI a usual therapeutic dose in humans. We multiplied by 10 the dose for rats/kg, but a higher dose of 8 mg/kg body weight (b.w.) was chosen to be suitable for detection in rat plasma, considering the analytical method sensitivity. […] We administered 43 mg/kg b.w. in rats, multiplying the target dose in humans of 300 mg/day by 10.
Twenty-four Wistar albino male rats were divided into two groups.
The collection of blood samples was carried out using the BASi Culex ABC®-Automatic Blood Collector device (BASi, West Lafayette, IN, USA). This facilitated the collection of exact volumes per sample and at exact times post-administration. One day prior to blood sample collection, rats in both groups went through a surgical procedure consisting of a cannula insertion on the femoral vein under intramuscular anesthesia (0.1 mL/100 g b.w. of 1:1 ketamine and xylazine solution), which allowed the device to have access to the rats’ bloodstream. The excess blood drawn on the catheter was returned to the animal along with saline, replacing the volume of blood collected to avoid fluid depletion.
Blood samples, 200 μL each, were automatically drawn in heparinized Eppendorf tubes at 10, 20, 30, 45 min, 1, 1.5, 2, 2.5, 3, 4, 6, 8, 10, 12, 16, 20, 24 and 30 h after ARI single-dose administration in the two experimental groups, and they were immediately placed at −20 °C until further analysis.
Samples were precipitated using acetonitrile. For a 0.1 mL blood sample, 0.3 mL of acetonitrile were added. After the samples were vortex-mixed with IKA Vortex 2 (1000 rpm) for 10 s and centrifuged for 5 min at 10,000 rpm using a Sigma 3-30KS centrifuge (9168× g), the supernatant was injected into the HPLC system.
For concomitant quantification of ARI and D-ARI, a validated reverse-phase liquid chromatography coupled with tandem mass spectrometry (LC-MS/MS) method was developed. The HPLC system Agilent 1100 series with a binary pump, autosampler and thermostat (Agilent Technologies, Santa Clara, CA, USA) was used. The Bruker Ion Trap SL (Bruker Daltonics GmbH, Bremen, Germany) was used for detection. […] Haloperidol spiked into the thawed blood samples was used as an internal standard. The mobile phase consisted of water and 0.3% (m/v) formic acid as eluent A and acetonitrile as eluent B, eluted in a linear gradient (start with 20% acetonitrile, up to 2.5 min 38% acetonitrile, keep at 38% acetonitrile until 4.2 min, re-equilibrate with 20% acetonitrile for 2 min). The injection volume was 5 μL, the flow rate was 1 mL/min and the thermostat temperature was set at 40 °C. The MS detection was in multiple reaction monitoring mode (MRM), and the ESI-MS spectra were recorded in positive ion mode. The following mass transitions were used for analyte quantification: m/z 448 → m/z 285 for ARI, m/z 446 → m/z 285 for D-ARI and m/z 376 → m/z 165 for haloperidol. In these chromatographic conditions, the retention times were 2.80 min for haloperidol, 3.15 min for D-ARI and 3.55 min for ARI, respectively. The concentrations of the two analytes were determined by the instrument data system (QuantAnalysis software, Bruker Daltonics GmbH, Bremen, Germany) using peak area ratios versus concentration ratios of each analyte versus internal standard. The calibration curve model was determined for five calibration series by the linear least squares analysis, weighted (1/y2). […] The matrix effects were measured by comparing the response of the spiked plasma with the response of standards in solvent with the same concentration of ARI and D-ARI as in plasma, and for the measurement of the absolute recovery, a spike and a post-spiked sample were compared [31, 32].

The conditions of series [3]: cited from earlier work; for change of serum concentrations of ARI and AM versus control group / effect on D-ARI concentration / higher mean dose-adjusted concentration of ARI: TDM database; for effect on D-ARI concentration / higher mean dose-adjusted concentration of ARI: ARI combined with the antidepressant.
The mark [4] stands for this setting: ARI 8 mg/kg single dose after 6-day BUP 43 mg/kg pretreatment (test, n = 12).
Setting [5] is: ARI 8 mg/kg single dose alone (reference, n = 12).
[6] abbreviates: rats, after BUP repeated doses vs ARI alone.
Where [7] appears, read: co-medication, Japanese psychiatric patients.

Turning to `O=C1CCc2ccc(OCCCCN3CCN(c4cccc(Cl)c4Cl)CC3)cc2N1` [Aripiprazole], in series [1], the “absolute oral bioavailability (F)” value is given as 87%, the “binding to plasma proteins” value was above 99%, the “time to reach maximum plasma concentration” value was 3 to 5 h and the “time to reach steady-state” value was 14 days. In series [1] (poor metabolizers (PMs)), the “elimination t1/2” value is 146 h. Further, in series [2] (setting [4]), the Vz_F is reported as 20.67 ± 27.53 L/kg, the AUC(0-t) worked out at 5390 ± 2980 ng·h/mL, the AUC(0-inf) stood at 6310 ± 2980 ng·h/mL and the CL/F is 26.2 mL/min/kg. Also, in series [2] (setting [4]), the Cmax is 472 ± 217 ng/mL, the MRT was determined as 19.2 ± 27.7 h, the Tmax is 6.92 ± 2.47 h and the k el is 5e-05 s⁻¹. Besides, in series [2] (setting [4]), the half-life was 11.5 ± 20.2 h. For the same compound, in series [2] (setting [5]), the Vz_F is given as 121.64 ± 143.94 L/kg, the AUC(0-t) was 1110 ± 931 ng·h/mL, the AUC(0-inf) came out at 1120 ± 931 ng·h/mL and the CL/F is 248 mL/min/kg. In series [2] (setting [5]), the Cmax came to 240 ± 169 ng/mL, the MRT is 4.63 ± 1.78 h, the Tmax was 1.65 ± 0.8 h and the k el is 4.17e-05 s⁻¹. Also, the half-life in series [2] (setting [5]) was 5.56 ± 3.13 h. In addition, in series [2] (setting [6]), the “decrease of the apparent systemic clearance of ARI” value is “over 9 fold”, the “increase of the mean AUC0–30 of ARI” value was 4.85 fold, the “increase of the mean AUC0–∞ of ARI” value was 5.65 fold and the “increase of the mean Cmax of ARI” value is 96.76%. For the same compound, the “increase of the mean Cmax of ARI” value in series [2] (rats, after BUP repeated doses vs ARI alone, listed as ARI) amounted to 2 fold.
On to `CC(NC(C)(C)C)C(=O)c1cccc(Cl)c1` (centres unmarked) [BUP, Bupropion], for which the oral bioavailability in series [1] is 90%.
Consider `CN(C)CCC[C@@]1(c2ccc(F)cc2)OCc2cc(C#N)ccc21` [Escitalopram], for which the “change of serum concentrations of ARI and AM versus control group” value (“change … of ARI and AM versus control group” for short) in series [3] (co-medication) is given as “slight but statistically significant”. In addition, in series [3] (co-medication with ARI), the “change of the systemic exposure to the AM” value is recorded as “did not significantly change”.
Regarding `CNCC[C@H](Oc1cccc2ccccc12)c1cccs1` [duloxetine], the “increase of the plasma concentrations of ARI” value in series [3] (large TDM database, co-medication) was 54.2%.
As for `CNCCC(Oc1ccc(C(F)(F)F)cc1)c1ccccc1` (centres unmarked) [fluoxetine], in series [3], the “effect on D-ARI concentration” value is recorded as “no effect” and the “higher mean dose-adjusted concentration of ARI” value was 45%. For the same compound, the “increase of the C/D ratio of ARI compared to ARI monotherapy” value in series [3] (routine TDM service, concomitant use) was 44%.
Consider `Fc1ccc([C@@H]2CCNC[C@H]2COc2ccc3c(c2)OCO3)cc1` [paroxetine], for which, in series [3], the “effect on D-ARI concentration” value is recorded as “no effect” and the “higher mean dose-adjusted concentration of ARI” value is 45%. Besides, in series [3] (setting [7]), the “increase of the plasma concentrations of ARI” value is 1.7 fold and the “increase of the plasma concentrations of the active moiety (AM)” value was 1.5 fold.
For the compound `CN[C@H]1CC[C@@H](c2ccc(Cl)c(Cl)c2)c2ccccc21` [sertraline], the “change … of ARI and AM versus control group” value in series [3] (co-medication) is “no significant influence”.
For `COc1ccc(C(CN(C)C)C2(O)CCCCC2)cc1` (centres unmarked) [venlafaxine], in series [3] (co-medication), the “change … of ARI and AM versus control group” value is reported as “no significant influence”.
